Literature values, collected in patent publication US8722101B2, “Use of iron(III) complex compounds” (Vifor (International) AG, priority 2005, dated 2014).

Details: children with iron-related anaemia; administration for 75 days

Question: With `O=S(=O)([O-])[O-].[Fe+2]` [iron sulfate] as the compound, how does the “improvement in the mental and psychomotor development” value read?
Answer: did not find any improvement
